Results: patent US8697656B2, “Compounds, in particular peptides, compositions comprising them and cosmetic and dermo-pharmaceutical uses” (SEDERMA, priority 2009, dated 2014)
Non-standard residues stand in square brackets, D forms with d. Residues, ends and D or L forms follow the SMILES beside them. *: point of attachment. Met(O2) = CS(=O)(=O)CC[CH](N)C(=O)O; Palmitoyl = CCCCCCCCCCCCCCCC(=O)*; Ava = NCCCCC(=O)O

What was measured:
dermal NHF = assay: Immunostaining method for collagen I on dermal NHF (Table 7); format: cell-based, human; conditions: Table 7 Test 2
Source text: Table 7 Showing % Differences in Collagen I in the Dermis Compared to the Control for Dioxygenated Peptide Compounds According to the Immunostaining Method or to ELISA Test on Dermal NHF

[1] = tested on: Normal human dermal fibroblasts (NHF); assay: ELISA test on normal human dermal fibroblasts (NHF): macromolecules in culture supernatants; format: cell-based; conditions: Table 7 Test 1
Protocol: ELISA Test on Normal Human Dermal Fibroblasts (NHF)
This test examines the dermal molecules.
Normal human dermal fibroblasts are cultured in multi-well plates. The cells either are or are not placed in contact with the test substances for 3 days. The culture supernatants are removed and the quantity of macromolecules present (collagen I, fibronectin, collagen IV and hyaluronic acid) is assayed by ELISA.

Molecule	Collagen I in the dermis, Test 2 (% difference compared to the control) (dermal NHF; 2 ppm)	Collagen I in the dermis, Test 2 (% difference compared to the control) (dermal NHF; 4 ppm)	Collagen I in the dermis, Test 2 (% difference compared to the control) (dermal NHF; 6 ppm)	Collagen I in the dermis, Test 1 (% difference compared to the control) ([1]; 2 ppm)	Collagen I in the dermis, Test 1 (% difference compared to the control) ([1]; 4 ppm)	Collagen I in the dermis, Test 1 (% difference compared to the control) ([1]; 6 ppm)
CCCCCCCCCCCCCCCC(=O)NCCCCC(=O)NC(CCS(C)(=O)=O)C(N)=O (stereo not drawn) [Pal-Ava-MO2-NH2]	+495%	+667%	+557%	–	–	–
CCCCCCCCCCCCCCCC(=O)NC(CCS(C)(=O)=O)C(=O)NCCCCC(N)=O (stereo not shown) [Pal-MO2-Ava-NH2]	+375%	+582%	+461%	–	–	–
CCCCCCCCCCCCCCCC(=O)NC(CCS(C)(=O)=O)C(=O)NC(CCCCN)C(=O)O (stereo not shown) [Pal-MO2-K-OH] (Palmitoyl-[Met(O2)]-Lys-OH; configuration not given here)	+270%	+457%	+226%	–	–	–
Pal-K-Ava-MO2-K-OH: Dioxygenated peptide compound, SEQ ID NO 35 (Palmitoyl-K[Ava][Met(O2)]K-OH; SMILES CCCCCCCCCCCCCCCC(=O)N[C@@H](CCCCN)C(=O)NCCCCC(=O)N[C@@H](CCS(C)(=O)=O)C(=O)N[C@@H](CCCCN)C(=O)O)	–	–	–	+63%	+167%	–
Pal-K-F-MO2-K-OH: Dioxygenated peptide compound, SEQ ID NO 31 (Palmitoyl-KF[Met(O2)]K-OH; SMILES CCCCCCCCCCCCCCCC(=O)N[C@@H](CCCCN)C(=O)N[C@@H](Cc1ccccc1)C(=O)N[C@@H](CCS(C)(=O)=O)C(=O)N[C@@H](CCCCN)C(=O)O)	–	–	–	–	+80%	+81%
Pal-K-MO2-Ava-K-OH: Dioxygenated peptide compound, SEQ ID NO 36 (Palmitoyl-K[Met(O2)][Ava]K-OH; SMILES CCCCCCCCCCCCCCCC(=O)N[C@@H](CCCCN)C(=O)N[C@@H](CCS(C)(=O)=O)C(=O)NCCCCC(=O)N[C@@H](CCCCN)C(=O)O)	–	–	–	+75%	–	–
Pal-K-MO2-F-K-OH: Dioxygenated peptide compound, SEQ ID NO 34 (Palmitoyl-K[Met(O2)]FK-OH; SMILES CCCCCCCCCCCCCCCC(=O)N[C@@H](CCCCN)C(=O)N[C@@H](CCS(C)(=O)=O)C(=O)N[C@@H](Cc1ccccc1)C(=O)N[C@@H](CCCCN)C(=O)O)	–	–	–	–	+91%	–
Pal-K-MO2-T-K-OH: Dioxygenated peptide compound, SEQ ID NO 33 (Palmitoyl-K[Met(O2)]TK-OH; SMILES CCCCCCCCCCCCCCCC(=O)N[C@@H](CCCCN)C(=O)N[C@@H](CCS(C)(=O)=O)C(=O)N[C@H](C(=O)N[C@@H](CCCCN)C(=O)O)[C@@H](C)O)	–	+192%	+217%	–	+45%	+194%
Pal-K-T-F-MO2-NH2: Dioxygenated peptide compound, SEQ ID NO 32 (Palmitoyl-KTF[Met(O2)]-NH2; SMILES CCCCCCCCCCCCCCCC(=O)N[C@@H](CCCCN)C(=O)N[C@H](C(=O)N[C@@H](Cc1ccccc1)C(=O)N[C@@H](CCS(C)(=O)=O)C(N)=O)[C@@H](C)O)	+267%	+420%	+400%	–	+106%	+121%
Pal-K-T-MO2-K-OH: Dioxygenated peptide compound, SEQ ID NO 30 (Palmitoyl-KT[Met(O2)]K-OH; SMILES CCCCCCCCCCCCCCCC(=O)N[C@@H](CCCCN)C(=O)N[C@H](C(=O)N[C@@H](CCS(C)(=O)=O)C(=O)N[C@@H](CCCCN)C(=O)O)[C@@H](C)O)	+273%	+341%	+262%	–	+75%	+161%
Pal-MO2-T-K-F-OH: Dioxygenated peptide compound, SEQ ID NO 29	+218%	+456%	+520%	–	+111%	+148%
